The source of these data is patent EP2914280B1, “SOMATOSTATIN-DOPAMINE CHIMERIC ANALOGS” (IPSEN PHARMA S.A.S., priority 2012, dated 2014).

One assay concerns the target T1, hSSTR1 (Homo sapiens, UniProt P30872).
T1 construct: expressed in transfected cells; host or cells: CHO-K1 (ATCC), pcDNA3.1, G418-selected clonal line; membranes
In words: Somatostatin receptor radioligand binding assay (hSSTR1).

Assay [1] has as its target T2, hDRD2 (Homo sapiens, UniProt P14416). In words: cell-based. The settings on record: read-out: hDRD2 %Emax ± SEM. Also noted: host or cells: 'Cells expressing hDRD2'.
Experimental: The ability of select compounds according to the present invention to activate hSSTR2 and hDRD2 was determined by the intracellular calcium mobilization assay using FLIPR Calcium 4 assay kit (Molecular Devices).
Cells expressing hSSTR2 or hDRD2 were plated in 384-well microplates in tissue culture media and incubated for 16-24 hours at 37°C in a humidified atmosphere with 5% CO2. Medium was replaced by loading buffer containing Hank's buffered saline, 20 mM HEPES, 2.5 mM probenecid and Calcium 4 dye, and the plates were incubated at 37°C for 60 minutes.
The target of assay [2] is T3, hSSTR2 (Homo sapiens, UniProt P30874).
T3 construct: host or cells: 'Cells expressing hSSTR2'
In words: Intracellular calcium mobilization assay (FLIPR Calcium 4), hSSTR2.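 Further: agonist activity measured in cells expressing hSSTR2, seeded in 384-well plates, loaded with Calcium 4 dye, read-out as rise in intracellular calcium.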 The format is cell-based. The settings on record: receptor not named. In general terms: Calcium assays in cells follow changes in intracellular calcium, usually with a dye or a luminescent sensor.

A further assay addresses T4, hSSTR4 (Homo sapiens, UniProt P31391).
T4 construct: expressed in transfected cells; host or cells: CHO-K1 (ATCC), pcDNA3.1, G418-selected clonal line; membranes
In words: Somatostatin receptor radioligand binding assay (hSSTR4). The conditions noted are these: CHO-K1 cell membranes; 0.05 nM [125I-Tyr11]-SRIF-14; 60 minutes at 25°C; read-out: hSSTR4 Ki (nM) ± SEM. The protocol:
(§1) The affinities of a test compound for the human somatostatin receptors were determined by radioligand binding assays in CHO-K1 cells stably transfected with each of the human somatostatin receptor subtypes, hSSTR1-5. The cDNA coding sequences of hSSTR1 (GenBank accession No. NM_001049.1), hSSTR2 (GenBank accession No. XM_012697.1), hSSTR3 (GenBank accession No. XM_009963.1), hSSTR4 (GenBank accession No. NM_001052.1), and hSSTR5 (GenBank accession No. XM_012565.1) were subcloned into the mammalian expression vector pcDNA3.1 (Life Technologies). Clonal cell lines stably expressing each of the somatostatin receptors were obtained by transfection into CHO-K1 cells (ATCC) and subsequently selected with culture media containing 0.8 mg/mL of G418 (Life Technologies).
(§2) Membranes for in vitro receptor binding assays were obtained by the following procedures. CHO-K1 cells expressing one of the somatostatin receptors were homogenized in ice-cold buffer with 10 mM Tris-HCl, 5 mM EDTA, 3 mM EGTA, 1 mM phenylmethylsuphonyl fluoride, pH 7.6, using Polytron PT10-35GT (Kinematica) at 18,000 rpm for 30 seconds and centrifuged at 500 x g for 10 minutes. The supernatant containing the plasma membranes was centrifuged at 100,000 x g for 30 minutes and the pellet was resuspended in buffer containing 20 mM glycine-glycine, 1 mM MgCl2, 250 mM sucrose, pH 7.2, for storage at -80°C.
(§3) For the hSSTR3 and 4 assays, membranes and various concentrations of test compounds were incubated in 96-well plates for 60 minutes at 25°C with 0.05 nM [^125I-Tyr^11]-SRIF-14 (PerkinElmer Life Science) in 50 mM HEPES, 0.2% BSA, 5 mM MgCl2, 200 KIU/mL trasylol, 0.02 mg/mL bacitracin, and 0.02 mg/mL phenylmethylsuphonyl fluoride, pH 7.5.
(§4) The incubations were terminated by rapid filtration through GF/C glass microfiber filter plates (pre-wet with 0.3% polyethyleneimine and 0.1 % BSA) using a 96-well cell harvester (Brandel). Plates were washed six times with 1 mL/well aliquots of ice-cold buffer containing 50 mM Tris buffer, pH 7.7. Specific binding was defined as the total radioligand bound minus the bound in the presence of 1000 nM SRIF-14.

The target in assay [3] is T2, hDRD2. In words: biochemical. Also on record: expressed in transfected cells; host or cells: CHO-K1, pcDNA3.1/GS, zeocin-selected clonal line; membranes. It is filed as binding.
In a further assay the target is T5, hSSTR5 (Homo sapiens, UniProt P35346).
T5 construct: expressed in transfected cells; host or cells: CHO-K1 (ATCC), pcDNA3.1, G418-selected clonal line; membranes
In words: Somatostatin receptor radioligand binding assay (hSSTR5). The settings on record: CHO-K1 cell membranes; 0.05 nM [125I-Tyr]-[DPhe-cyclo(Cys-Tyr-DTrp-Lys-Val-Cys)-Thr-NH2]; 60 minutes at 25°C; read-out: hSSTR5 Ki (nM) ± SEM.

Assay [4] deals with T3, hSSTR2. In words: Somatostatin receptor radioligand binding assay (hSSTR2).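 Further: radioligand displacement on membranes of CHO-K1 cells stably transfected with human SSTR2, specific binding taken as total minus binding left with 1000 nM SRIF-14.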
Experimental: (§5) The affinities of a test compound for the human somatostatin receptors were determined by radioligand binding assays in CHO-K1 cells stably transfected with each of the human somatostatin receptor subtypes, hSSTR1-5. […] Clonal cell lines stably expressing each of the somatostatin receptors were obtained by transfection into CHO-K1 cells (ATCC) and subsequently selected with culture media containing 0.8 mg/mL of G418 (Life Technologies).
(§6) Membranes for in vitro receptor binding assays were obtained by the following procedures. […] The supernatant containing the plasma membranes was centrifuged at 100,000 x g for 30 minutes and the pellet was resuspended in buffer containing 20 mM glycine-glycine, 1 mM MgCl2, 250 mM sucrose, pH 7.2, for storage at -80°C.
(§7) For the SSTR1, 2 and 5 assays, membranes and various concentrations of test compounds were incubated in 96-well plates for 60 minutes at 25°C with 0.05 nM [^125I-Tyr^11]-SRIF-14 (for hSSTR1; PerkinElmer Life Science), 0.05 nM [^125I-Tyr]-seglitide (for hSSTR2; PerkinElmer Life Science) or 0.05 nM [^125I-Tyr]-[DPhe-cyclo(Cys-Tyr-DTrp-Lys-Val-Cys)-Thr-NH2] (for hSSTR5; PerkinElmer Life Science) in 50 mM HEPES, 0.2% BSA, 0.1 mM MgCl2, pH 7.5.
In another assay the target is T6, hSSTR3 (Homo sapiens, UniProt P32745).
T6 construct: expressed in transfected cells; host or cells: CHO-K1 (ATCC), pcDNA3.1, G418-selected clonal line; membranes
In words: Somatostatin receptor radioligand binding assay (hSSTR3). The settings on record: CHO-K1 cell membranes; 0.05 nM [125I-Tyr11]-SRIF-14; 60 minutes at 25°C; read-out: hSSTR3 Ki (nM) ± SEM. On the procedure:
as §1, §2, §3, §4

The subject of assay [5] is pituitary tumor cells of acromegalic patients presenting with macroadenoma. In words: Human pituitary adenoma cell growth hormone release assay. The conditions noted are these: incubated for 18 hours; Growth hormone levels in the medium by AlphaLISA; Figure 5. The format is cell-based. On the procedure: • Figure 1 is a graph showing the Growth hormone suppressing activity of Compound 4 (see Table I hereinbelow for its chemical name and its corresponding structural representation) on pituitary tumor cells of acromegalic patients presenting with macroadenoma. Various concentrations of Compound 4 were added to the medium and the cells were incubated for 18 hours before measurement of Growth hormone levels in the medium using the AlphaLISA Growth Hormone Immunoassay Research kit (PerkinElmer). • Figure 2 is a graph showing the Growth hormone suppressing activity of Compounds 5 , 6, and 7 (see Table I hereinbelow for their chemical name and their corresponding structural representation) on pituitary tumor cells of acromegalic patients presenting with macroadenoma. Various concentrations of Compounds 5, 6, and 7 were added to the medium and the cells were incubated for 18 hours before measurement of Growth hormone levels in the medium using the AlphaLISA Growth Hormone Immunoassay Research kit (PerkinElmer). • Figure 3 is a graph showing the Growth hormone suppressing activity of Compounds 4, 6, 7, 8, and 9 (see Table I hereinbelow for their chemical name and their corresponding structural representation) on pituitary tumor cells of acromegalic patients presenting with macroadenoma. […]
In general terms: In Alpha technology, singlet oxygen from a donor bead excites a nearby acceptor bead.

[6] abbreviates: CHO-K1 cell membranes, 0.05 nM [125I-Tyr11]-SRIF-14, 60 minutes at 25°C, read-out: hSSTR1 Ki (nM) ± SEM.
[7] abbreviates: CHO-K1 cell membranes, […] [3H]-spiperone, 60 minutes at 25°C, read-out: hDRD2 Ki (nM) ± SEM.
Where [8] appears, read: CHO-K1 cell membranes, 0.05 nM [125I-Tyr]-seglitide, 60 minutes at 25°C, read-out: hSSTR2 Ki (nM) ± SEM.

Like-named read-outs stand apart in the source and are kept apart here.
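Wherever Emax is given: agonist activity at human DRD2 in DRD2-expressing cells, read as intracellular calcium mobilization with a FLIPR Calcium 4 fluorescent dye.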

T4 sequence (P31391 whole entry): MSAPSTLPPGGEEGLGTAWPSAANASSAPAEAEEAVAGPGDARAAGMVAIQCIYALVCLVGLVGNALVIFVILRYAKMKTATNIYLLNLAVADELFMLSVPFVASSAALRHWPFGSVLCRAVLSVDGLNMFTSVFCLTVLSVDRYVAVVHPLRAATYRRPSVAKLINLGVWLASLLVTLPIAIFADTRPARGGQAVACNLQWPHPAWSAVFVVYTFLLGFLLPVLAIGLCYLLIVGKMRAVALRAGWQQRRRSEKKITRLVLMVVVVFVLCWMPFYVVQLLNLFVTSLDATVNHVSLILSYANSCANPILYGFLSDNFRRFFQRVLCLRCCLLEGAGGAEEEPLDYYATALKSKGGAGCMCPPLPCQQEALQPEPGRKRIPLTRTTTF
T2 sequence (P14416 whole entry): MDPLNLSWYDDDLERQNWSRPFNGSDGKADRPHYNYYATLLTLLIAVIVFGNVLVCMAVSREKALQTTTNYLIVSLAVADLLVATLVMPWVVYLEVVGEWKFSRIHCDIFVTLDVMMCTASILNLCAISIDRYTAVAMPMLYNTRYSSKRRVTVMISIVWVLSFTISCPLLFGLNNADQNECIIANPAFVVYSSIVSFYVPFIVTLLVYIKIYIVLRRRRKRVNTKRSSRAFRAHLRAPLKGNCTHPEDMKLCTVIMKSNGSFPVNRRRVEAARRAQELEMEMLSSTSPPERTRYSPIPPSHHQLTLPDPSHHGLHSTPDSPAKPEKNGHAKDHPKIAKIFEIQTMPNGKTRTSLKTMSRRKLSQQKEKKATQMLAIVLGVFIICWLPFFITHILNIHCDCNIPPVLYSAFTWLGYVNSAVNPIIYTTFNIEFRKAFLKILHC
T3 sequence (P30874 whole entry): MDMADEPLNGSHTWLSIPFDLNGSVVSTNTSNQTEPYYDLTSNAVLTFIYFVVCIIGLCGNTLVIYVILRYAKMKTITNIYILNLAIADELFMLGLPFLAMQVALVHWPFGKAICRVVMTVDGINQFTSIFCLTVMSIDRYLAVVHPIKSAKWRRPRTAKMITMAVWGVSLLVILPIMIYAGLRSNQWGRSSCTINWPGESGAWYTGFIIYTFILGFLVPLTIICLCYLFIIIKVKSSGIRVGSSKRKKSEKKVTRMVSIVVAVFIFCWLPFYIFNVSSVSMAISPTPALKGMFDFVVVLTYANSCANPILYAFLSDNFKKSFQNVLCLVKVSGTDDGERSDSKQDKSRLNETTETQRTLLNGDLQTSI
T6 sequence (P32745 whole entry): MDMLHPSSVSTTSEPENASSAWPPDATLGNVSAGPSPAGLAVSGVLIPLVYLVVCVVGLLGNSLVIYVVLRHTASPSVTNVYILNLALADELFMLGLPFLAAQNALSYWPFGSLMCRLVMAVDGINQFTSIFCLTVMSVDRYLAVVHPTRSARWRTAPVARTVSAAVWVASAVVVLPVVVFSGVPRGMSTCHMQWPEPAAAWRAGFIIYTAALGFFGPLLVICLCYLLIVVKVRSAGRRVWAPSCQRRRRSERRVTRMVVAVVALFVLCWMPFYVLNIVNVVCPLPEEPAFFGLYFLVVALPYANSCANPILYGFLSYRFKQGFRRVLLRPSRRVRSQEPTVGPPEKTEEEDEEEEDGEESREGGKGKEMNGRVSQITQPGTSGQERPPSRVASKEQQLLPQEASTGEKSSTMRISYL
T5 sequence (P35346 whole entry): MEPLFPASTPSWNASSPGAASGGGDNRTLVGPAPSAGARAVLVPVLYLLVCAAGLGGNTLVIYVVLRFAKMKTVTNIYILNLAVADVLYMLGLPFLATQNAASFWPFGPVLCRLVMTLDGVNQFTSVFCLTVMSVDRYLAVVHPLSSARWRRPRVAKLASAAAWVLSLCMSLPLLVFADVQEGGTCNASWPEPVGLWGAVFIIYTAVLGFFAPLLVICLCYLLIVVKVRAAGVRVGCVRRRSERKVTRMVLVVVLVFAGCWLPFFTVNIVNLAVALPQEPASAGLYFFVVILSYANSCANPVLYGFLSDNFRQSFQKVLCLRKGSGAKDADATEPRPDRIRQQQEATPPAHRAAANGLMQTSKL
T1 sequence (P30872 whole entry): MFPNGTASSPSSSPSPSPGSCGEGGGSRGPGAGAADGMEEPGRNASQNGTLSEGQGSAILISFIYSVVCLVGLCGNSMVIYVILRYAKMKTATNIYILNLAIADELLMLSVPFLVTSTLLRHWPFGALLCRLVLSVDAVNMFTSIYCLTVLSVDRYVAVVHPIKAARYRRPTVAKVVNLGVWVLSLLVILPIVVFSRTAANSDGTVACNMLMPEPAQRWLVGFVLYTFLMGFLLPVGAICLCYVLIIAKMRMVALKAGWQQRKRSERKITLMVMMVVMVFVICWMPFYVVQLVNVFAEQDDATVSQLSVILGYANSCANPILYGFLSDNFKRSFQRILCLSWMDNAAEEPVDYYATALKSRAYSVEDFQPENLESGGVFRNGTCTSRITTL
Experimental for hSSTR1: as §5, §6, §7
Experimental for hSSTR5: as §5, §6, §7

Turning to `C[C@@H](O)[C@@H]1NC(=O)[C@H](CCCCN)NC(=O)[C@@H](Cc2c[nH]c3ccccc23)NC(=O)[C@H](Cc2ccncc2)NC(=O)[C@H](Cc2ccccc2)NC(=O)[C@H](CCCNC(=N)N)NC(=O)[C@H](NC[C@H](Cc2ccc(O)cc2)NC(=O)CSC[C@@H]2C[C@@H]3c4cccc5[nH]cc(c45)C[C@H]3N(C)C2)CCCCNC(=O)[C@H](Cc2ccccc2)NC1=O` [Compound 4, Dop1-Tyr-psi(CH2NH)-cyclo(DLys-Arg-Phe-4Pal-DTrp-Lys-Thr-Phe)], the Ki was determined as 38.1 ± 12.5 nM at hSSTR1 (setting [6]); 93.5 ± 47.7 nM at hSSTR4; 182.5 ± 1.7 nM on hDRD2 [3] (setting [7]); 0.92 ± 0.1 nM on hSSTR5; 0.12 ± 0.01 nM on hSSTR2 [4] (setting [8]); 10.6 ± 0.5 nM on hSSTR3. In addition, the Emax on hDRD2 [1] was 106 ± 2.4%. For the same compound, on hSSTR2 [2], the “improvement in EC50 and/or %Emax over Reference Compound B” value is “statistically significant improvement in EC50 and/or %Emax”. Further, the “Growth hormone suppressing activity compared to the parent somatostatin analogs” value in [5] is “enhanced Growth hormone suppressing activity”.

`C[C@@H](O)[C@@H]1NC(=O)[C@H](CCCCN)NC(=O)[C@@H](Cc2c[nH]c3ccccc23)NC(=O)[C@H](Cc2ccccc2)NC(=O)[C@H](Cc2ccccc2)NC(=O)[C@H](CCCNC(=N)N)NC(=O)[C@H](NC[C@H](Cc2ccc(O)cc2)NC(=O)CSC[C@@H]2C[C@@H]3c4cccc5[nH]cc(c45)C[C@H]3N(C)C2)CCCCNC(=O)[C@H](Cc2ccc(F)cc2)NC1=O` [Compound 5, Dop1-Tyr-psi(CH2NH)-cyclo(DLys-Arg-Phe-Phe-DTrp-Lys-Thr-4FPhe)]: the inhibition constant Ki at hSSTR1 (setting [6]) stood at 9 ± 0.3 nM; on hSSTR4, 25.2 ± 9 nM; at hDRD2 [3] (setting [7]), 28.5 ± 12.8 nM; on hSSTR5, 1.65 ± 0.8 nM; at hSSTR2 [4] (setting [8]), 0.34 ± 0.09 nM; on hSSTR3, 1.5 ± 0.3 nM. Besides, the Emax at hDRD2 [1] was 98.7 ± 2.3%. Besides, the “improvement in EC50 and/or %Emax over Reference Compound B” value on hSSTR2 [2] is “statistically significant improvement in EC50 and/or %Emax”. Moreover, the “Growth hormone suppressing activity compared to the parent somatostatin analogs” value in assay [5] was “enhanced Growth hormone suppressing activity”.

Consider `C[C@@H](O)[C@@H]1NC(=O)[C@H](CCCCN)NC(=O)[C@@H](Cc2c[nH]c3ccccc23)NC(=O)[C@H](Cc2ccncc2)NC(=O)[C@H](Cc2ccccc2)NC(=O)[C@H](CCCNC(=N)N)NC(=O)[C@H](NC[C@H](CCCCNC(=O)CSC[C@@H]2C[C@@H]3c4cccc5[nH]cc(c45)C[C@H]3N(C)C2)NC(=O)CSC[C@@H]2C[C@@H]3c4cccc5[nH]cc(c45)C[C@H]3N(C)C2)CCCCNC(=O)[C@H](Cc2ccccc2)NC1=O` [Compound 9, Dop1-Lys(Dop1)-psi(CH2NH)-cyclo(DLys-Arg-Phe-4Pal-DTrp-Lys-Thr-Phe)], for which the inhibition constant Ki turned out to be 41.9 ± 21.1 nM on hSSTR1 (setting [6]); 24 ± 3.6 nM on hSSTR4; 39.2 ± 8.3 nM at hDRD2 [3] (setting [7]); 1.54 ± 0.3 nM at hSSTR5; 0.13 ± 0.06 nM at hSSTR2 [4] (setting [8]); 4 ± 0.5 nM on hSSTR3. Besides, the Emax at hDRD2 [1] was determined as 92.8 ± 3.8%. Also, the “improvement in %Emax over Reference Compound C” value on hSSTR2 [2] is “statistically significant improvement in %Emax”.

Regarding `C[C@@H](O)[C@@H]1NC(=O)[C@H](CCCCN)NC(=O)[C@@H](Cc2c[nH]c3ccccc23)NC(=O)[C@H](Cc2ccncc2)NC(=O)[C@H](Cc2ccccc2)NC(=O)[C@H](CCCNC(=N)N)NC(=O)[C@H](NC[C@H](CCCCNC(=O)CSC[C@@H]2C[C@@H]3c4cccc5[nH]cc(c45)C[C@H]3N(C)C2)NC(=O)CSC[C@@H]2C[C@@H]3c4cccc5[nH]cc(c45)C[C@H]3N(C)C2)CCCCNC(=O)[C@H](Cc2ccc(O)cc2)NC1=O` [Compound 8, Dop1-Lys(Dop1)-psi(CH2NH)-cyclo(DLys-Arg-Phe-4Pal-DTrp-Lys-Thr-Tyr)], the inhibitory constant (Ki) on hSSTR1 (setting [6]) is 106 ± 7.9 nM; at hSSTR4, 60.7 ± 15.7 nM; on hDRD2 [3] (setting [7]), 113 ± 35 nM; at hSSTR5 it was 1.49 ± 0.3 nM; on hSSTR2 [4] (setting [8]) it was 0.21 ± 0.08 nM; on hSSTR3, 7.5 ± 0.3 nM. For the same compound, the Emax on hDRD2 [1] came out at 94.7 ± 0.8%. Further, at hSSTR2 [2], the “improvement in %Emax over Reference Compound C” value was “statistically significant improvement in %Emax”.

For the compound `CC(=O)N(CCC(=O)NC(CN[C@@H]1CCCCNC(=O)[C@H](Cc2ccc(F)cc2)NC(=O)[C@H]([C@@H](C)O)NC(=O)[C@H](CCCCN)NC(=O)[C@@H](Cc2c[nH]c3ccccc23)NC(=O)[C@H](Cc2ccccc2)NC(=O)[C@H](Cc2ccccc2)NC(=O)[C@H](CCCNC(=N)N)NC1=O)Cc1ccc(O)cc1)C[C@@H]1C[C@@H]2c3cccc4[nH]cc(c34)C[C@H]2N(C)C1` (single isomer, unassigned) [Compound 27, 3-[N-acetyl-N-(D-6-methyl-8β-ergolinylmethyl)]-aminopropionyl-Tyr-psi(CH2NH)-cyclo(DLys-Arg-Phe-Phe-DTrp-Lys-Thr-4FPhe)], the Ki on hSSTR1 was 24.4 ± 12 nM; at hSSTR4, 7.3 ± 1.3 nM; on hDRD2 [3], 277 ± 55.5 nM; at hSSTR5, 0.53 ± 0.1 nM; at hSSTR2 [4] it was 0.32 ± 0.04 nM; at hSSTR3, 0.9 ± 0.1 nM. On hDRD2 [1], the maximal response (Emax) stood at 86.3 ± 8%.

By Ki is commonly meant the dissociation constant of the complex between target and ligand, obtained from inhibition or displacement. As usually defined, the Emax is the maximal effect, on the per cent scale that the assay sets.
